The values below come from patent publication US20060138687A1, “Method of forming particles” (Ferro Corporation, priority 2003, published 2006).

The data set can be described thus: Scanning Electron Microscopy (SEM) analysis of collected particles. It is filed as physicochemical. Particulars: SEM micrograph; particles made by third embodiment (droplets frozen on contact with CO2/ethanol/water extracting fluid at −23° C., solid-liquid extraction). The protocol: The collected particles were analyzed using Scanning Electron Microscopy (SEM). From FIG. 11 it is clear that the GF particles are in the form of non-agglomerated crystals, having an orthorhombic shape. The mean size of the substantially uniform particles is around 5-10 μm.
Analysis of the porous lactose particles was carried out in the same manner as described in Example 1. FIG. 12 is an SEM micrograph of the lactose particles. […] If desired, these lactose nanocrystals can be obtained simply by crumbling the large porous lactose spheres.

Consider `COC1=CC(=O)C[C@@H](C)[C@]12Oc1c(Cl)c(OC)cc(OC)c1C2=O` [GF, Griseofulvin], for which the “mean size of the particles” value is 5-10 μm. As to `OC[C@H]1O[C@@H](O[C@H]2[C@H](O)[C@@H](O)C(O)O[C@@H]2CO)[C@H](O)[C@@H](O)[C@H]1O` (some centres unmarked) [lactose, Lactose], the “mean size of the particles” value is 20-30 μm.
